The record followed here is patent US10221173B2, “Chemical compounds” (AstraZeneca AB, priority 2017, dated 2019).

Series [1] is described as follows: Thermodynamic solubility (shake-flask). Format: physicochemical. The settings on record: aqueous phosphate buffer, 25 °C, pH 7.4, aqueous buffer, thermodynamic from solid, phosphate buffer pH 7.4, 24 hours.
In series [2] the target is recombinant human Estrogen Receptor alpha ligand binding domain (ER alpha-LBD (GST)) (Homo sapiens (Human), UniProt P03372). Put plainly: ERα binding assay (LanthaScreen TR-FRET competition). Background: In TR-FRET formats the signal depends on donor and acceptor labels being close together.
The target of series [3] is Estrogen Receptor (ERα) in MCF-7 cells (Homo sapiens (Human), UniProt P03372). The series is described as follows: MCF-7 ER down-regulation assay (immuno-fluorescence). The format is cell-based.

Converted amounts (≈) assume the structure as drawn.

The solubility is how much of the substance goes into solution per volume. Higher therefore signals much dissolved substance. By IC50 is commonly meant the concentration that inhibits the measured activity by half.

Chain of recombinant human Estrogen Receptor alpha ligand binding domain (ER alpha-LBD (GST)) (P03372 307-554): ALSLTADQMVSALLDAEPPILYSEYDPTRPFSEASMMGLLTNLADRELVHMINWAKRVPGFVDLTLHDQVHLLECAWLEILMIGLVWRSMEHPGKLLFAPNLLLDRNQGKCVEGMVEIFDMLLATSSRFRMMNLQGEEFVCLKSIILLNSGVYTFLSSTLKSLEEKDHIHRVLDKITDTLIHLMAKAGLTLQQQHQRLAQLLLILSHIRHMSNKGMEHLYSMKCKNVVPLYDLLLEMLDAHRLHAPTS
Chain of Estrogen Receptor (ERα) in MCF-7 cells (P03372 whole entry): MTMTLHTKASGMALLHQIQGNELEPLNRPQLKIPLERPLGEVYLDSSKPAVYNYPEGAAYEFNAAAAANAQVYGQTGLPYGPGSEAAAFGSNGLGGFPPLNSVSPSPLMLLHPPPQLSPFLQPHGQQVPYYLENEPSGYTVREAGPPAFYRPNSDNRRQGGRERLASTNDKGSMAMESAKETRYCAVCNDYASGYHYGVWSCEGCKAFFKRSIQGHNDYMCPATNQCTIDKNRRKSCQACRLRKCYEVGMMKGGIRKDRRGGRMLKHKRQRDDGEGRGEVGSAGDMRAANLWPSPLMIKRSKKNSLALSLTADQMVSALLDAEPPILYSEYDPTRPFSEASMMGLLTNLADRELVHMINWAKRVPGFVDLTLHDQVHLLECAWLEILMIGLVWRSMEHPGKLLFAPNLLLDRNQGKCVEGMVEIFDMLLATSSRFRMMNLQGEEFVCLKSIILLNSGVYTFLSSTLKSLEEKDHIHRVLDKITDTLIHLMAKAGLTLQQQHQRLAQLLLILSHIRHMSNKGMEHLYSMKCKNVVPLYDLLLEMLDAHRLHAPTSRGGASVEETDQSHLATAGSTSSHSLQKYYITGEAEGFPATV

For `C[C@@H]1Cc2c([nH]c3ccccc23)[C@@H](c2cccc(NCCNCCCF)c2)N1CC1(F)COC1` [Example 2, N-1-(3-((1R,3R)-2-((3-fluorooxetan-3-yl)methyl)-3-methyl-2,3,4,9-tetrahydro-1H-pyrido[3,4-b]indol-1-yl)phenyl)-N-2-(3-fluoropropyl)ethane-1,2-diamine], in series [1], the solubility at 24 h came to 895 µM (≈ 419 µg/mL).
With `COc1ccc(OCCNCCCF)cc1[C@@H]1c2[nH]c3ccccc3c2C[C@@H](C)N1CC1(F)CC1` [Example 52, 3-fluoro-N-(2-(3-((1R,3R)-2-((1-fluorocyclopropyl)methyl)-3-methyl-2,3,4,9-tetrahydro-1H-pyrido[3,4-b]indol-1-yl)-4-methoxyphenoxy)ethyl)propan-1-amine], the 50% inhibitory concentration (IC50) was determined as 0.58 nM in series [2] and 0.34 nM in series [3].
The matching figures for `C[C@@H]1Cc2c([nH]c3ccc(F)cc23)[C@@H](c2c(F)ccc(OCCNCCCF)c2F)N1C[C@H](C)C(=O)O` [Example 59, (S)-3-((1R,3R)-1-(2,6-difluoro-3-(2-((3-fluoropropyl)amino)ethoxy)phenyl)-6-fluoro-3-methyl-1,3,4,9-tetrahydro-2H-pyrido[3,4-b]indol-2-yl)-2-methylpropanoic acid]: 2.3 nM and 3.1 nM.
Consider `Cc1c(OCCNCCCF)ccc(F)c1[C@@H]1c2[nH]c3ccccc3c2C[C@@H](C)N1CC(C)(C)C(=O)O` [Example 119, 3-((1R,3R)-1-(6-fluoro-3-(2-((3-fluoropropyl)amino)ethoxy)-2-methylphenyl)-3-methyl-1,3,4,9-tetrahydro-2H-pyrido[3,4-b]indol-2-yl)-2,2-dimethyl-propanoic acid], for which the values for the IC50 in series [2] and in series [3] were 6.9 nM and 1 nM, respectively.
The like results for `Cc1c(OCCNCCCF)ccc(F)c1[C@@H]1c2[nH]c3ccccc3c2C[C@@H](C)N1CC1(C(=O)O)CCC1` [Example 120] were, in that order, 11 nM and 2.5 nM.
The matching figures for `CC[C@@H]1Cc2c([nH]c3ccccc23)[C@@H](c2c(F)ccc(OCCNCCCF)c2C)N1C[C@H](C)C(=O)O` [Example 122, (S)-3-((1R,3R)-3-ethyl-1-(6-fluoro-3-(2-((3-fluoropropyl)amino)ethoxy)-2-methylphenyl)-1,3,4,9-tetrahydro-2H-pyrido[3,4-b]indol-2-yl)-2-methylpropanoic acid]: 4.9 nM and 0.39 nM.
The matching figures for `C[C@@H]1Cc2c([nH]c3ccccc23)[C@@H](c2c(F)ccc(OCCNCCCF)c2C(F)F)N1C[C@H](C)C(=O)O` [Example 125, (S)-3-((1R,3R)-1-(2-(difluoromethyl)-6-fluoro-3-(2-((3-fluoropropyl)amino)ethoxy)phenyl)-3-methyl-1,3,4,9-tetrahydro-2H-pyrido[3,4-b]indol-2-yl)-2-methylpropanoic acid]: 1.3 nM and 0.62 nM.
With `C[C@@H]1Cc2c([nH]c3ccccc23)[C@@H](c2c(F)cnc(OCCNCCCF)c2Cl)N1C[C@H](C)C(=O)O` [Example 133, (S)-3-((1R,3R)-1-(3-chloro-5-fluoro-2-(2-((3-fluoropropyl)amino)ethoxy)pyridin-4-yl)-3-methyl-1,3,4,9-tetrahydro-2H-pyrido[3,4-b]indol-2-yl)-2-methylpropanoic acid], the IC50 in series [2] and in series [3] was 1.5 nM in each case.
In the case of `C[C@@H](CN1[C@H](c2c(F)ccc(OCCNCCCF)c2Cl)c2[nH]c3ccccc3c2C[C@H]1C(F)F)C(=O)O` [Example 138, (S)-3-((1R,3S)-1-(2-chloro-6-fluoro-3-(2-((3-fluoropropyl)amino)ethoxy)phenyl)-3-(difluoromethyl)-1,3,4,9-tetrahydro-2H-pyrido[3,4-b]indol-2-yl)-2-methylpropanoic acid], the concentration for half-maximal inhibition (IC50) in series [2] and in series [3] was 1.6 nM in each case.
`C[C@@H](CN1[C@H](c2c(F)cnc(OCCNCCCF)c2Cl)c2[nH]c3ccccc3c2C[C@H]1C(F)F)C(=O)O` [Example 139, (S)-3-((1R,3S)-1-(3-chloro-5-fluoro-2-(2-((3-fluoropropyl)amino)ethoxy)pyridin-4-yl)-3-(difluoromethyl)-1,3,4,9-tetrahydro-2H-pyrido[3,4-b]indol-2-yl)-2-methylpropanoic acid]: the half-maximal inhibitory concentration (IC50) was 1.5 nM in series [2] and 0.9 nM in series [3].
Consider `C[C@@H]1Cc2c([nH]c3ccccc23)[C@@H](c2c(F)ccc(OCCN(C)CCCF)c2F)N1C[C@H](C)C(=O)O` [Example 144, (S)-3-((1R,3R)-1-(2,6-difluoro-3-(2-((3-fluoropropyl)(methyl)amino)ethoxy)phenyl)-3-methyl-1,3,4,9-tetrahydro-2H-pyrido[3,4-b]indol-2-yl)-2-methylpropanoic acid], for which the figures for the IC50 in series [2] and in series [3] were 5.6 nM and 7.9 nM, respectively. In addition, the “% downregulation (in brackets)” value in series [3] (maximum downregulation) stood at 88%.
As for `Cc1c(OCCN(C)CCCF)ccc(F)c1[C@@H]1c2[nH]c3ccc(F)cc3c2C[C@@H](C)N1C[C@H](C)C(=O)O` [Example 146, (S)-3-((1R,3R)-6-fluoro-1-(6-fluoro-3-(2-((3-fluoropropyl)(methyl)amino)ethoxy)-2-methylphenyl)-3-methyl-1,3,4,9-tetrahydro-2H-pyrido[3,4-b]indol-2-yl)-2-methylpropanoic acid], the IC50 in series [2] came out at 1.1 nM; in series [3], 0.4 nM.
As for `Cc1c(OCCN(C)CCCF)ncc(F)c1[C@@H]1c2[nH]c3ccc(F)cc3c2C[C@@H](C)N1C[C@@H](C)C(=O)O` [Example 155, (2R)-3-[(1R,3R)-6-fluoro-1-[5-fluoro-2-[2-[3-fluoropropyl(methyl)amino]ethoxy]-3-methyl-4-pyridyl]-3-methyl-1,3,4,9-tetrahydropyrido[3,4-b]indol-2-yl]-2-methyl-propanoic acid], the values for the half-maximal inhibitory concentration (IC50) in series [2] and in series [3] were 1 nM and 0.21 nM, respectively.
With `Cc1c(OCCN(C)CCCF)ncc(F)c1[C@@H]1c2[nH]c3ccc(F)cc3c2C[C@@H](C)N1CCC(=O)O` [Example 156, 3-((1R,3R)-6-fluoro-1-(5-fluoro-2-(2-((3-fluoropropyl)(methyl)amino)ethoxy)-3-methylpyridin-4-yl)-3-methyl-1,3,4,9-tetrahydro-2H-pyrido[3,4-b]indol-2-yl)propanoic acid], the half-inhibitory concentration (IC50) came to 1.2 nM in series [2] and 1.4 nM in series [3].
Take `Cc1c(OCCN(C)CCCF)ncc(F)c1[C@@H]1c2[nH]c3ccccc3c2C[C@@H](C)N1CCC(=O)O` [Example 157, 3-((1R,3R)-1-(5-fluoro-2-(2-((3-fluoropropyl)(methyl)amino)ethoxy)-3-methylpyridin-4-yl)-3-methyl-1,3,4,9-tetrahydro-2H-pyrido[3,4-b]indol-2-yl)propanoic acid]: the concentration for half-maximal inhibition (IC50) in series [2] was found to be 1.8 nM; in series [3] it was 1 nM.
For `Cc1c(OCCN(C)CCCF)ccc(F)c1[C@@H]1c2[nH]c3ccc(F)cc3c2C[C@@H](C)N1C[C@@H](C)C(=O)O` [Example 160, (R)-3-((1R,3R)-6-fluoro-1-(6-fluoro-3-(2-((3-fluoropropyl)(methyl)amino)ethoxy)-2-methylphenyl)-3-methyl-1,3,4,9-tetrahydro-2H-pyrido[3,4-b]indol-2-yl)-2-methylpropanoic acid], the concentration for half-maximal inhibition (IC50) was 1.9 nM in series [2] and 0.36 nM in series [3].
